Laboratory results: US6699850B2, “Compositions and methods for inhibiting bone resorption” (Merck & Co., Inc., priority 1998, dated 2004)

How the values were obtained:
[1] = test system: 34 kDa Mst Kinase fragment; assay: In-gel kinase assay of Mst kinase activities in cultured osteoclast-like cells; format: cell-based, Murine; conditions: for activation of the 34 kDa Mst Kinase fragment: osteoclast like cells; for blocking of activation of Mst1 cleavage by alendronate monosodium trihydrate: FIG. 5 lanes 3 and 4, 10 μM isoprenoid with 30 μM alendronate monosodium trihydrate
Experimental: (§1) Murine co-cultures of osteoblasts and marrow cells are prepared using the methods of Wesolowski, et al., Exp Cell Res, (1995), 219, pp. 679-686, which is incorporated by reference herein in its entirety. Bone marrow cells are harvested from 6-week-old male Balb/C mice by flushing marrow spaces of freshly isolated long bones (tibiae and femora) with α-MEM (minimal essential media) containing penicillin/streptomycin (100 I.U./ml of each and 20 mM Hepes buffer). The bone marrow cells are suspended in α-MEM and the cells are filtered through an approximately 70 μm cell strainer. The filtrate is centrifuged at about 300×g for about 7 minutes. The resulting pellet is resuspended in α-MEM supplemented with fetal calf serum (10% v/v) and 10 nM 1, 25-(OH)2 vitamin D3. These bone marrow isolates are added to sub-confluent monolayers of osteoblastic MB 1.8 cells in cell culture plates and cultured for 7 days at 37 °C. in the presence of 5% CO2. Culture media is replenished ever other day. Fusion of the osteoclast precursor cells from bone marrow (with each other) to form multinucleated osteoclast-like cells typically occurs after about 7 days. Osteoclast-like cells are enriched by sequential treatment with collagenase (1 mg/mL in phosphate buffered saline) for one hour at 37° C. and EDTA (0.2 g/L in phosphate buffered saline) for 20 min at 37° C. Non-adherent cells are rinsed away by washing with phosphate buffered saline. Osteoclast-like cells which are resistant to the sequential treatments are present at about 95% purity and are maintained in α-MEM supplemented with fetal calf serum (10% v/v), 10 nM 1,25-(OH)2 vitamin D3, macrophage-colony-stimulating factor (5 ng/mL).
The compounds to be evaluated are prepared as a solution of the desired concentration in α-MEM. Examples of compounds that can be evaluated include nitrogen-containing bisphosphonates such as alendronate monosodium trihydrate, as well as compounds that block the effects of these inhibitors, such as isoprenoid compounds, for example, geranylgeraniol, geranylgeranyl phosphate, geranylgeranyl pyrophosphate, geranylgeranyl acetate, geranylgeranyl propionate, geranylgeranyl benzoate, geranylgeranyl lactate, geranylgeranyl succinate, and geranylgeranyl glutarate. Combinations of compounds can also be evaluated. The solutions of the compounds to be evaluated are added to the cultures for a time period of 17-24 hours. No treatment controls (controls not treated with compounds) are prepared by adding equivalent volumes of α-MEM to the control dishes.
Cells are then harvested and Iysed in a HEPES (N-(2-hydroxyethyl)piperazine-N′-(2-ethansulfonic acid) or Tris buffer containing the following: β-glycerophosphate (50 mM); Na3VO4 (1 mM); NaF (1 mM); Microcystin LR (1 μM); leupeptin (10 μg/ml); aprotinin (10 μg/ml); phenylmethyl sulfonylfluoride (1 mM). Protein concentrations are determined for each lysate and 5-20 μg are loaded into each lane of a SDS-PAGE (sodium dodecyl sulfate-polyacrylamide gel electrophoresis) gel containing Myelin Basic Protein, or another kinase substrate, which has been polymerized into the gel at a concentration between 50-400 μg/ml. Molecular weight standards are also loaded into one or more lanes of the gels. In-gel kinase assays are run according to a standard procedure based on Kameshita and Fujisawa, 1989 (Anal. Biochem. 183:139-143) and of Gotoh et al., 1990 (Eur. J. Biochem. 193: 661-669), both references being incorporated by reference herein in their entirety. The proteins are electrophoresed in the above gels. The gels are then successively soaked in 50 mM HEPES, pH 7.6; 5 mM 2-mercaptoethanol and each of the following (for each wash): (a) 20% isopropanol; (b) no additions; (c) urea (6 M); (d) Urea (3 M); (e) Urea (0.75 M); and Tween 20 (0.05% vol:vol). Kinase reactions are then run by first soaking the gels in 20 mM HEPES, pH 7.6; 20 mM MgCl2; 2 mM DTT and then in the same buffer containing 0.02 M ATP (non-radioactive) with ca. 1000 cpm/pmol ^32P-γ-ATP. […]

[2] = test system: osteoclast function; assay: Osteoclast cell cultures and bone resorption assays; format: cell-based; conditions: with a bisphosphonate such as alendronate monosodium trihydrate; no concentration stated
Experimental: The compounds are dosed both 5 and 6 days after establishing the culture, and the formation of 250 μm cells are counted using an inverted microscope with a 10×objective and quantitated versus a no treatment control.
as §1, with “Osteoclast-like cells are enriched by sequential treatment with collagenase (1 mg/mL in phosphate buffered saline) for one hour at 37° C. and EDTA (0.2 g/L in phosphate buffered saline) for 20 min at 37° C. Non-adherent cells are rinsed away by washing with phosphate buffered saline. Osteoclast-like cells which are resistant to the sequential treatments are present at about 95% purity and are maintained in α-MEM supplemented with fetal calf serum (10% v/v), 10 nM 1,25-(OH)2 vitamin D3, macrophage-colony-stimulating factor (5 ng/mL).” left out

Row | SMILES | activation of the 34 kDa Mst Kinase fragment ([1]; FIG. 2, 30 μM, about 17 hours) | activation of the 34 kDa Mst Kinase fragment ([1]; FIG. 2, 100 μM, about 17 hours) | blocking of activation of Mst1 cleavage by alendronate monosodium trihydrate [1] | also measured
1 | NCCCC(O)(P(=O)(O)O)P(=O)(O)O [alendronate monosodium trihydrate, 4-amino-1-hydroxybutylidene-1,1-bisphosphonic acid monosodium trihydrate] | activation | activation | – | activation of 34 kDa Mst Kinase fragment immunoprecipitated by anti-Mst and anti-Krs antibody cocktail ([1]; FIG. 1 lane 3, 30 μM, osteoclast-like cells, in-gel kinase assay after immunoprecipitation): activated; activation of the 34 kDa Mst Kinase fragment ([1]; FIG. 4 lane 2, 30 μM): activation; activation of Mst1 cleavage ([1]; FIG. 5 lane 2, 30 μM, myelin basic protein as substrate): activation of Mst1 cleavage
2 | CC(C)=CCC/C(C)=C/CC/C(C)=C/CC/C(C)=C/CO [geranylgeraniol] | – | – | blocked | effect on bisphosphonate-induced inhibition of osteoclast function [2]: block the inhibitory effect; effect on activation of the 34 kDa Mst Kinase fragment by alendronate monosodium trihydrate ([1]; FIG. 4 lane 3, 10 μM geranylgeraniol with 30 μM alendronate monosodium trihydrate): negates this activation; effect on cleavage of Mst induced by bisphosphonates such as alendronate monosodium trihydrate ([1]; osteoclasts, no concentration stated): prevent the cleavage of Mst
3 | CC(C)=CCCC(C)=CCCC(C)=CCO [farnesol] | – | – | partially blocked | –
4 | O=P(O)(O)C(Sc1ccc(Cl)cc1)P(=O)(O)O [tiludronate disodium] | fail to activate | fail to activate | – | –
5 | CC(O)(P(=O)(O)O)P(=O)(O)O [etidronate disodium] | fail to activate | fail to activate | – | –
